Assay results: patent publication US9464283B2, “Signaling compositions, methods, and systems for effecting plant growth and crop enhancement” (KamTec, LLC, priority 2013, dated 2016)
Values joined by “and” are separate entries in the source; they are usually repeats but may differ in a detail not shown here. Equal entries are not always repeated.

Key:
[1] = system: 'M-202' medium-grain rice (Oryza sativa L.); test: Rice seed soak with NaCl irrigation (salt tolerance); assay type: in vivo; settings: 5 ppm, 1500 ppm NaCl irrigation, planting through completion of study
Method: In another preferred embodiment of the present invention, seeds are soaked in prepared bio-regulator solutions for a period of three hours. Rice seeds were selected from ‘M-202’ medium-grain rice (Oryza sativa L.), (Reg. no 72) PI494105 type grains; this selection was meant to represent a typical California rice seed, and was not meant to be limiting. The bio-regulator solutions are prepared using 5 ppm BMTA solution with 0.05% v/v Kinetic® made by Helena Chemical Company. The solution was drained and the seeds planted in starter plastic containers with potting soil. After germination and having grown to 4 inches in height, the plants were transplanted into 6 inch diameter plastic containers. Two sets of three pots each were set up for this study; one set for the test group and one set for the control group. Both the control and test studies were irrigated with 1500 ppm NaCl solution from time of planting until the study was completed. The purpose of the NaCl irrigation was to determine the effect of the bio-regulator treatment in regards to salt tolerances.

[2] = system: Melody variety sunflower; test: Sunflower seed soak, field plots; assay type: in vivo; settings: per Rep; 3 ppm, three hours seed soak
Text: In this preferred embodiment of the present invention, sunflower seeds were selected from the Melody variety and were soaked for three hours in solutions containing 0.05% Tween 20 and BMTA or BMPA, at a concentration of 3 ppm. Another group of seeds of the same variety was soaked in a solution with only in 0.05% Tween 20 added (control). Following soaking, seeds were desiccated to storage moisture contents and BMTA, BMPA and control seeds were sown in three twenty-five foot plots (Reps) each on May 21 (plots were arranged in a randomized block design). On September 16, sunflower heads were harvested, with a harvest of around 20 heads per plot/Rep on average. The heads were hand-threshed to collect seeds. Moisture, count, and weight data was collected on seeds from each head.

[3] = system: aphid infestation on cotton Bt plant; test: Aphid infestation of cotton Bt plants after seed soak; assay type: in vivo; settings: 5 ppm BMPA seed soak
Method: In this preferred embodiment of the present invention, seeds were soaked for a period of 3 hours in the bio-regulator solution. Cotton Bt were selected and studied to determine if bio-regulator chemistry will enhance or influence the inserted Bt genes of the transgenic plant. The seeds were separated into two different sets on July 2. The first set, Set 1, was soaked in 5 ppm BMPA solution with 0.05% Kinetic®. The second set, Set 2, was soaked in water with 0.05% v/v Kinetic®. The solution was drained and the treated seeds planted in starter plastic trays. After germination and after the seedlings reached the height of four inches, the cotton Bt plants were transplanted into larger six-inch plastic containers. The cotton plants were placed outdoors for the duration of the study. The different sets of plants were regularly observed throughout this study.

[4] = system: 'M-202' rice; test: Rice seed soak 24 hours, tap water irrigation; assay type: in vivo, Oryza sativa L.; settings: 5 ppm, 24 hours soak
Method: In this preferred embodiment of the present invention, seeds are soaked in prepared bio-regulator solutions for a period of 24 hours. Rice seeds were selected from the same ‘M-202’ type grains as in the previous study. The bio-regulator solutions were prepared using 5 ppm BMPA solution. The solution was drained and seeds planted in starter plastic containers filled with potting soil. After germination and plant growth reaching height of four inches, rice seedlings were transplanted from their greenhouse containers to six-inch diameter plastic containers and placed outdoor. Again, two sets of three pots for the control and test group were used. These studies were also carried out using an increased amount of BMPA. The amount was increased from 1 ppm to 5 ppm, and the results of the study were similar to the results outlined in the paragraph above.

SMILES | observed growth of rice plant [1] | % Moist [2] | delay of the infestation of aphids [3] | observed growth of rice plant [4]
Cc1ccc(C(=O)OCCN(C)Cc2ccccc2)cc1 [BMTA] | enhanced growth | 13.10% and 13.01% and 14.82% |  | 
CN(CCOC(=O)COc1ccccc1)Cc1ccccc1 [BMPA] |  | 13.52% and 13.93% and 12.37% | ≤ 19 days | enhanced growth
